Patent publication US5965570A, “Tricyclic piperidinyl compounds useful as inhibitors of farnesyl-protein transferase” (Schering Corporation, priority 1997, dated 1999)

Target: T1, farnesyl protein transferase (FPT) (Rattus norvegicus, UniProt Q02293+Q04631)
T1 construct: partially purified rat brain farnesyl protein transferase (FPT); from tissue; host or cells: rat brain
Experiment: FPT IC50 / FPT inhibition (inhibition of farnesyl protein transferase, in vitro enzyme assay)
Format: biochemical
Settings: for IC50: Ras-CVLS farnesylation by partially purified rat brain FPT

T1 sequence (Q02293 whole entry, one chain of several): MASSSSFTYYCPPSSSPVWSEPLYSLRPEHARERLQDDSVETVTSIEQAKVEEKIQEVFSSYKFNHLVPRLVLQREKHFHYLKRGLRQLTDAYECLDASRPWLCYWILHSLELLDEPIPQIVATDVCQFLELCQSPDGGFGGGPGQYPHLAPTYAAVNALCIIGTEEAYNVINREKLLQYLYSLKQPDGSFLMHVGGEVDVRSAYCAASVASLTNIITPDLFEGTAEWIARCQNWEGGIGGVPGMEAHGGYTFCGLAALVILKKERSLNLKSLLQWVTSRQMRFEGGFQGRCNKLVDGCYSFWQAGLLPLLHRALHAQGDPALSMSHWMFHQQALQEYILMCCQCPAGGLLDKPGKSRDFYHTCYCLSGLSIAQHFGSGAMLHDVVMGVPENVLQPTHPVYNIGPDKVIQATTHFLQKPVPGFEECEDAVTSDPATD

inhibition at 1.1 µM (@ 1.1 μM)	IC50	Compound
9%	–	O=C(NCCc1ccccn1)C1CCN(C2c3ccc(Cl)cc3CCc3cc(Br)cnc32)CC1 (stereo not drawn) [Example 6, 1-(3-Bromo-8-chloro-6,11-dihydro-5H-benzo[5,6]cyclohepta[1,2-b]pyridin-11-yl)-N-(2-pyridinylethyl)-4-piperidinecarboxamide]
–	1000 nM	O=C(NCCCN1CCCC1=O)[C@@H]1CCCN(C2c3ncc(Br)cc3CCc3cc(Cl)cc(Br)c32)C1 (stereo partly drawn) [Example 54, 1-(3,10-Dibromo-8-chloro-6,11-dihydro-5H-benzo[5,6]cyclohepta[1,2-b]pyridin-11-yl)-N-[3-(2-oxo-1-pyrrolidinyl)propyl]-3-piperidinecarboxamide]
–	210 nM	O=C(NCc1cccnc1)C1CCCN(C2c3ccc(Cl)cc3CCc3cc(Br)cnc32)C1 (stereo not drawn) [Example 10, 1-(3-Bromo-8-chloro-6,11-dihydro-5H-benzo[5,6]cyclohepta[1,2-b]pyridin-11-yl)-N-(3-pyridinylmethyl)-3-piperidinecarboxamide]
